Tests used:
TRPV1 [1] = target: T1, TRPV1 (Homo sapiens, UniProt Q8NER1); type: cell-based
TRPV1 [2] = target: T1, TRPV1; assay: whole-cell patch clamp, agonist current at […]; type: cell-based

T1 sequence (Q8NER1 whole entry): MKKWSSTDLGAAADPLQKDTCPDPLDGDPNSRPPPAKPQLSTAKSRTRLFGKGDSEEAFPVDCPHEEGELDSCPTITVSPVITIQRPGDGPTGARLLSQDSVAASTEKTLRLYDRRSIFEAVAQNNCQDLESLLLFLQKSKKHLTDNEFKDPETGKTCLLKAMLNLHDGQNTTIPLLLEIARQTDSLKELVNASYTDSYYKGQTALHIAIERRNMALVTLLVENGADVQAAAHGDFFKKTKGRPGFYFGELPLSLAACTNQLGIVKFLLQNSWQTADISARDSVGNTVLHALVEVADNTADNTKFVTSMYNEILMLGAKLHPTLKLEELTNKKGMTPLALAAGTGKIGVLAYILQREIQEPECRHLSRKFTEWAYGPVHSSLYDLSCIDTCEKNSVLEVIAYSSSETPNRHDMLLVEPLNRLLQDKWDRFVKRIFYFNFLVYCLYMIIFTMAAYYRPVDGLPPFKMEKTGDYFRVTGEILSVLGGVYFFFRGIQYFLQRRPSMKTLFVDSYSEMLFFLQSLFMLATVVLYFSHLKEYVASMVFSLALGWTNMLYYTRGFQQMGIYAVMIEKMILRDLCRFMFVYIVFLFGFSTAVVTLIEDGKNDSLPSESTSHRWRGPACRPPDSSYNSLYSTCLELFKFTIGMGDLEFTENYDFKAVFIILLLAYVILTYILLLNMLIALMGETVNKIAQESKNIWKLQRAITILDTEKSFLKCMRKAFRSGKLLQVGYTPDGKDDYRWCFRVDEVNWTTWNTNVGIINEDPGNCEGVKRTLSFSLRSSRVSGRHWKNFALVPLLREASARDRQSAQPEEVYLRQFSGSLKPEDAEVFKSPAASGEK

Compound | IC50 (TRPV1 [1]) [nM] | whole-cell patch clamp, agonist current at 1 μM (TRPV1 [2])
C=C1CC[C@H](O)C/C1=C/C=C1\CCC[C@]2(C)[C@@H]([C@H](C)CCCC(C)(C)O)CC[C@@H]12 [25OHD, 25-Hydroxyvitamin D] | 34.3 ± 0.2 | 
CCCCCCCC/C=C\CCCCCCCC(=O)NCCc1ccc(O)c(O)c1 [OLDA, N-oleoyldopamine] |  | OLDA elicited whole‐cell currents that displayed similar kinetics to that observed with capsaicin

— PMC7589233 (The Journal of Physiology, 2020)
